# Measured values as given in PMC10714400, “Antimicrobial Peptide–Peptoid Hybrids with and without Membrane Disruption” (ACS Infectious Diseases, 2023).
# Read-outs that look alike come from different tables or passages of the source. Where a SMILES comes first, the peptide text is derived from it. [ ]: non-standard residue; d: D form. Nleu = CC(C)CNCC(=O)O; Nlys = NCCCCNCC(=O)O
# Tests used:
# [1] = test system: human red blood cells (hRBC); assay: Minimum hemolytic concentration (MHC); type: cell-based
# Description: We also measured minimal hemolysis concentrations (MHC) on human red blood cells by serial 2-fold dilution as an indication of toxicity against eukaryotic cells (Table 1).
# A. baumannii ATCC19606 = test system: A. baumannii ATCC19606
# Description: (§1) Antimicrobial activity was assayed for all the peptide–peptoids against P. aeruginosa PAO1, K. pneumoniae NCTC418, E. coli W3110, A. baumannii ATCC 19606, methicillin-resistant S. aureus COL (MRSA), and for selected peptides on P. aeruginosa PA14 and the polymyxin-B-resistant derivatives PA14 4.13, PA14 4.18, PA14 2P4, as well as the clinical isolates ZEM-1A and ZEM9A, K. pneumoniae OXA-48, S. aureus Newman, Enterobacter cloacae, Stenotrophomonas maltophilia, Burkholderia cenocepacia, and Staphylococus epidermidis. To determine the Minimal Inhibitory Concentration (MIC), the Broth Microdilution method was used.[72] A colony of bacteria was picked and grown in LB medium overnight at 37 °C.
# (§2) To each well was finally added 4 μL of the diluted bacterial suspension (see above), corresponding to approximately 5 × 10^5 CFU. For each test, two columns of the plate were kept for sterility control (medium only), growth control (medium with bacterial inoculum, no compound). The positive control, Polymyxin B (starting with a concentration of 16 μg/mL) in MH medium with bacterial inocula, was introduced in the two lines of the plate. The plates were incubated at 37 °C for ca. 18 h under static conditions. Next, 15 μL of 3-(4,5-dimethylthiazol-2-yl)-2,5-diphenyltetrazolium bromide (MTT)[73] (1 mg/mL in sterilized MilliQ deionized water) were added to each well, and the plates were incubated for 20–30 min at room temperature. The minimal inhibitory concentration (MIC) was defined as the lowest concentration of the compound that inhibits the visible growth of the tested bacteria (yellow) with the unaided eye.
# PA14 4.18 (pmrB) = details: […] MH at pH 8.5; for MIC P. aeruginosa PA14 4.18, […] MH at pH 8.5: CSV
# Description: as §1, §2
# P. aeruginosa PAO1 = test system: P. aeruginosa PAO1
# Description: as §1, §2
# K. pneumoniae NCTC418 = test system: K. pneumoniae NCTC418
# Description: as §1, §2
# PA14 2P4 (pmrB) = details: CSV; […] MH at pH 8.5
# Description: as §1, §2
# E. coli W3110 = test system: E. coli W3110
# Description: as §1, §2
# PA14 4.13 (phoQ) = details: CSV; […] MH at pH 8.5
# Description: as §1, §2
# S. aureus COL (MRSA) = test system: S. aureus COL (MRSA)
# Description: as §1, §2
# [2] = Circular dichroism, α-helical content; type: physicochemical; details: 0.1 mg/mL; for CD %α with 5 mM DPC: 10 mM phosphate buffer pH 7.4, 5 mM DPC; for CD %α with 20% TFE: 10 mM phosphate buffer pH 7.4, 20% TFE
# P. aeruginosa PA14 = details: Table S3; […] MH at pH 8.5, 16-20 hours at 37 °C
# Description: as §1
# as §2, with “The plates were incubated at 37 °C for ca. 18 h under static conditions.” left out
# S. aureus Newman = details: Table S3; […] MH at pH 8.5
# Description: as §1
# as §2, with “The plates were incubated at 37 °C for ca. 18 h under static conditions.” left out
compound,measurement,setting,value
"CC(C)C[C@H](NC(=O)[C@H](CC(C)C)NC(=O)[C@H](CC(C)C)NC(=O)CN(CCCCN)C(=O)[C@H](CC(C)C)NC(=O)[C@H](CC(C)C)NC(=O)CN(CCCCN)C(=O)[C@H](CC(C)C)NC(=O)[C@H](CC(C)C)NC(=O)CN(CCCCN)C(=O)CNCCCCN)C(N)=O [EB7, kkLLkLLkLLL] (H-[Nlys][Nlys]LL[Nlys]LL[Nlys]LLL-NH2)",Hemolysis,[1],none of them showed any measurable hemolysis
same,MHC,[1],>2000 µg/mL
same,"MIC A. baumannii ATCC19606, full MH at pH 7.4","A. baumannii ATCC19606; ATCC19606, 4 h, pH 7.4",>32 ug/mL
same,"MIC A. baumannii ATCC19606, full MH at pH 8.5","A. baumannii ATCC19606; ATCC19606, 4 h, pH 8.5",4 ug/mL
same,MIC A. baumannii ATCC19606 Full,"A. baumannii ATCC19606; ATCC19606, pH 7.4",>32 µg/mL
same,"MIC P. aeruginosa PA14 4.18, […] MH at pH 8.5",PA14 4.18 (pmrB),8 ug/mL
same,"MIC P. aeruginosa PAO1, full MH at pH 7.4","P. aeruginosa PAO1; PAO1, 4 h, pH 7.4",32 ug/mL
same,"MIC P. aeruginosa PAO1, full MH at pH 8.5","P. aeruginosa PAO1; PAO1, 4 h, pH 8.5",8 ug/mL
same,"MIC K. pneumoniae NCTC418, full MH at pH 7.4","K. pneumoniae NCTC418; NCTC418, 4 h, pH 7.4",>32 ug/mL
same,"MIC K. pneumoniae NCTC418, full MH at pH 8.5","K. pneumoniae NCTC418; NCTC418, 4 h, pH 8.5",4 ug/mL
same,"MIC P. aeruginosa PA14 2P4, […] MH at pH 8.5",PA14 2P4 (pmrB),16 ug/mL
same,"MIC E. coli W3110, […] MH at pH 7.4",E. coli W3110; CSV,4 ug/mL
same,"MIC E. coli W3110, […] MH at pH 8.5","E. coli W3110; CSV, […] MH at pH 8.5",1 ug/mL
same,"MIC E. coli W3110, full MH at pH 7.4",E. coli W3110; CSV,16 ug/mL
same,"MIC E. coli W3110, full MH at pH 8.5",E. coli W3110; CSV,4 ug/mL
same,MIC E. coli W3110 […],"E. coli W3110; diluted MH ([…] MH, pH 8.5) per Table 1 footnote b, 16–20 h at 37 °C",4 µg/mL
same,MIC E. coli W3110 Full,"E. coli W3110; full MH, pH 7.4, 16–20 h at 37 °C",16 µg/mL
same,"MIC P. aeruginosa PA14 4.13, […] MH at pH 8.5",PA14 4.13 (phoQ),4 ug/mL
same,"MIC S. aureus COL (MRSA), full MH at pH 7.4","S. aureus COL (MRSA); COL, 4 h, pH 7.4",>32 ug/mL
same,MIC S. aureus COL (MRSA) Full MH 8.5,"S. aureus COL (MRSA); COL, 4 h, pH 8.5",4 to 8 µg/mL
same,"MIC S. aureus COL (MRSA), full MH at pH 8.5","S. aureus COL (MRSA); COL, 4 h, pH 8.5",6 ug/mL
same,MIC S. aureus COL (MRSA) Full,"S. aureus COL (MRSA); COL, pH 7.4",>32 µg/mL
"CC(C)C[C@H](NC(=O)[C@H](CCCCN)NC(=O)[C@@H](N)CCCCN)C(=O)N[C@@H](CC(C)C)C(=O)N[C@@H](CCCCN)C(=O)N(CC(=O)N(CC(=O)N(CCCCN)CC(=O)N(CC(=O)N(CC(=O)N(CC(N)=O)CC(C)C)CC(C)C)CC(C)C)CC(C)C)CC(C)C [EB4, KKLLKllklll] (H-KKLLK[Nleu][Nleu][Nlys][Nleu][Nleu][Nleu]-NH2)",Hemolysis,[1],none of them showed any measurable hemolysis
same,MHC,[1],>2000 µg/mL
same,CD %α with 5 mM DPC,"[2]; DichroWeb, Contin-LL",9%
same,CD %α with 20% TFE,"[2]; DichroWeb, Contin-LL",11%
same,CD %α with 5 mM DPC,[2]; Table S2,9%
same,CD %α with 20% TFE,[2]; Table S2,11%
same,"MIC A. baumannii ATCC19606, full MH at pH 7.4","A. baumannii ATCC19606; ATCC19606, 4 h, pH 7.4",>32 ug/mL
same,MIC A. baumannii ATCC19606 […] 7.4,"A. baumannii ATCC19606; Table S2, […] MH, pH 7.4",32 µg/mL
same,MIC A. baumannii ATCC19606 […] 8.5,"A. baumannii ATCC19606; Table S2, […] MH, pH 8.5",16 µg/mL
same,MIC A. baumannii ATCC19606 Full MH 7.4,"A. baumannii ATCC19606; Table S2, full MH, pH 7.4",> 32 µg/mL
same,MIC A. baumannii ATCC19606 Full MH 8.5,"A. baumannii ATCC19606; Table S2, full MH, pH 8.5",16 µg/mL
same,"MIC P. aeruginosa PA14 4.18, […] MH at pH 8.5",PA14 4.18 (pmrB),24 ug/mL
same,MIC P. aeruginosa PA14 4.18,PA14 4.18 (pmrB); Table S3,16 to 32 µg/mL
same,"MIC P. aeruginosa PAO1, full MH at pH 7.4","P. aeruginosa PAO1; PAO1, 4 h, pH 7.4",>32 ug/mL
same,MIC P. aeruginosa PAO1 […] 8.5,"P. aeruginosa PAO1; Table S2, […] MH, pH 8.5",4 µg/mL
same,MIC P. aeruginosa PAO1 Full MH 7.4,"P. aeruginosa PAO1; Table S2, full MH, pH 7.4",> 32 µg/mL
same,"MIC K. pneumoniae NCTC418, full MH at pH 7.4","K. pneumoniae NCTC418; NCTC418, 4 h, pH 7.4",>32 ug/mL
same,MIC K. pneumoniae NCTC418 […] 7.4,"K. pneumoniae NCTC418; Table S2, […] MH, pH 7.4",> 32 µg/mL
same,MIC K. pneumoniae NCTC418 […] 8.5,"K. pneumoniae NCTC418; Table S2, […] MH, pH 8.5",32 µg/mL
same,MIC K. pneumoniae NCTC418 Full MH 7.4,"K. pneumoniae NCTC418; Table S2, full MH, pH 7.4",> 32 µg/mL
same,MIC K. pneumoniae NCTC418 Full MH 8.5,"K. pneumoniae NCTC418; Table S2, full MH, pH 8.5",16 µg/mL
same,"MIC P. aeruginosa PA14 2P4, […] MH at pH 8.5",PA14 2P4 (pmrB),16 ug/mL
same,"MIC E. coli W3110, […] MH at pH 7.4",E. coli W3110; CSV,8 ug/mL
same,"MIC E. coli W3110, full MH at pH 7.4",E. coli W3110; CSV,>32 ug/mL
same,"MIC E. coli W3110, full MH at pH 8.5",E. coli W3110; CSV,8 ug/mL
same,MIC E. coli W3110 […] 7.4,"E. coli W3110; Table S2, […] MH, pH 7.4",8 µg/mL
same,MIC E. coli W3110 […] 8.5,"E. coli W3110; Table S2, […] MH, pH 8.5",2 µg/mL
same,MIC E. coli W3110 Full MH 7.4,"E. coli W3110; Table S2, full MH, pH 7.4",> 32 µg/mL
same,MIC E. coli W3110 Full MH 8.5,"E. coli W3110; Table S2, full MH, pH 8.5",8 µg/mL
same,"MIC P. aeruginosa PA14 4.13, […] MH at pH 8.5",PA14 4.13 (phoQ),8 ug/mL
same,"MIC S. aureus COL (MRSA), full MH at pH 7.4","S. aureus COL (MRSA); COL, 4 h, pH 7.4",>32 ug/mL
same,MIC S. aureus COL (MRSA) […] 7.4,"S. aureus COL (MRSA); Table S2, […] MH, pH 7.4",32 µg/mL
same,MIC S. aureus COL (MRSA) Full MH 7.4,"S. aureus COL (MRSA); Table S2, full MH, pH 7.4",> 32 µg/mL
same,MIC S. aureus COL (MRSA) Full MH 8.5,"S. aureus COL (MRSA); Table S2, full MH, pH 8.5",16 µg/mL
same,MIC P. aeruginosa PA14,P. aeruginosa PA14,4 µg/mL
same,MIC S. aureus Newman,S. aureus Newman,8 µg/mL
